Assay results published in US20050164983A1, “Carboxyl-reduced derivatives of dermatan sulfate, preparation thereof, use thereof as a medicinal product and the pharmaceutical compositions containing them” (Aventis Pharma S.A., priority 2003, published 2005).

Legend:
[1] = target: T1, human neutrophil elastase (Homo sapiens, UniProt P08246); test: Inhibitory activity on human neutrophil elastase; type: biochemical; conditions: 15 min incubation
T1 construct: purchased Sigma E8140
T1 sequence (P08246 30-267): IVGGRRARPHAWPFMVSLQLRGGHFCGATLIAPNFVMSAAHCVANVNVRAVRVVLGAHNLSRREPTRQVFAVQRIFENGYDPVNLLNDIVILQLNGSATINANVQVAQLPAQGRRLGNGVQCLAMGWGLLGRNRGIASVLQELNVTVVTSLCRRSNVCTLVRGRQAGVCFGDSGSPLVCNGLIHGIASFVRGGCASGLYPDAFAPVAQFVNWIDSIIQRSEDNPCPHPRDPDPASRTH
Procedure: Effects of the Carboxyl-reduced Derivatives According to the Invention on Human Neutrophil Elastase
A commercially available enzyme (for example, human neutrophil elastase, Sigma No. E8140) is reconstituted in aliquots of 0.1 mg per vial with 0.276 ml of 50 mM sodium acetate buffer, pH 5.5, containing 200 mM NaCl (stock solution of the enzyme); 11 μl of this stock solution are diluted with 1.1 ml of the above HEPES buffer (enzyme assay solution).
The substrate solution is prepared by dissolving 118 mg of methoxy-succinyl-L-Ala-L-Ala-L-Pro-L-Val-p-nitro-anilide in 1 ml of DMSO (stock solution, for example Sigma No. M4765). In view of the application in the analysis, 9 μl of stock solution are then diluted in 1.19 ml of H2O.
Serial dilutions of the assay compounds are prepared in 100 mM of HEPES buffer containing 500 mM of NaCl. The analysis is carried out on colorless 96-well polystyrene microplates (for example, Corning Costar, No. 3695.
10 μl of enzyme assay solution are mixed with 10 μl of the respective solution of diluted compound and 10 μl of the substrate solution. After incubation for 15 min, the cleavage of the substrate is read as increase in absorbance at 405 nm.

[2] = target: aggrecanase; test: Effect on the aggrecanase in synovial fluids or on preparations of recombinant ADAMTS protein (Agg1mut substrate, BC-3 ELISA); type: biochemical; conditions: for Estimated IC50: aggrecanase, substrate conversion
Procedure: Effect of the carboxyl-reduced derivatives according to the invention on the aggrecanase in synovial fluids or on preparations of recombinant ADAMTS protein.
The analysis is carried out on 96-well plates. Before the analysis, serial dilutions of the assay compounds are prepared in an aqueous solution.
In each well, a fixed volume of synovial fluid or aggrecanase activity generating a known increase, between 1.0 and 1.4 absorbance units (405 nm), under the conditions of the analysis, is mixed with 3 μl of solution of compound from the respective dilution step. Dulbecco's modified Eagle's medium (DMEM) is added to each well to give a final volume of 300 μl. The plate is then incubated for 1 hour at 37° C. in a carbon dioxide atmosphere.
Preparation of the analytical plate:
In a first step, the microplate is coated with 100 μl per well of a commercial goat anti-mouse IgG antibody for 1 hour at ambient temperature (5 μg/ml in a phosphate buffered saline solution, pH 7.4 [PBS buffer]). After washing with the PBS buffer containing 0.1% of Tween-20 (washing buffer), the wells are blocked by means of a step consisting of a one hour incubation with 100 μl per well of 5% bovine serum albumin in a PBS buffer containing 0.05% of Tween-20.
After another rinse of the analytical plate with the washing buffer, the complete set of mixtures originating from the preceding digestion is transferred to this plate, well by well, and incubated at ambient temperature for one hour. The plate is again washed as above. Next, 100 μl of the second antibody (anti-human IgG antibody labeled with peroxidase, 1:1000 in PBS containing 0.5% of BSA and 0.05% of Tween-20) are added to each well, with subsequent incubation at ambient temperature again for one hour. […] The measurement is carried out by means of the screen mode using detection at 405 nm relative to a reference filter (620 nm) with automatic readings at 5-second intervals. The development is stopped as soon as the maximum signal (405 nm) in the absorbance range of 1.0 to 1.4 is reached.

[3] = target: T2, bovine factor Xa (Bos taurus, UniProt P00743); test: Inhibition of factor Xa (chromogenic substrate S-2765, with human antithrombin III); type: biochemical; conditions: calibrated against Enoxaparin
T2 sequence (P01008 33-464 partner): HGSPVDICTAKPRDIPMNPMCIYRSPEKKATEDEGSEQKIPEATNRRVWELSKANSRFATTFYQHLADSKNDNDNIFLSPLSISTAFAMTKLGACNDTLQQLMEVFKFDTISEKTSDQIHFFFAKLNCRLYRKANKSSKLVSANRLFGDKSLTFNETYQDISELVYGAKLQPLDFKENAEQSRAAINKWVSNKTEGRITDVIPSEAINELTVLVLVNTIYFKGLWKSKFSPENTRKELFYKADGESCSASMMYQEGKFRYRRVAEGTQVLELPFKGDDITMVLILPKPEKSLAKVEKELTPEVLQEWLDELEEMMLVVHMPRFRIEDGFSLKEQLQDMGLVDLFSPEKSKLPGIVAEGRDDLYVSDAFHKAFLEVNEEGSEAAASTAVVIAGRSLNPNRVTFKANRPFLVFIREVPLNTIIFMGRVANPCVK
T2 sequence (P00743 234-492 limits assumed): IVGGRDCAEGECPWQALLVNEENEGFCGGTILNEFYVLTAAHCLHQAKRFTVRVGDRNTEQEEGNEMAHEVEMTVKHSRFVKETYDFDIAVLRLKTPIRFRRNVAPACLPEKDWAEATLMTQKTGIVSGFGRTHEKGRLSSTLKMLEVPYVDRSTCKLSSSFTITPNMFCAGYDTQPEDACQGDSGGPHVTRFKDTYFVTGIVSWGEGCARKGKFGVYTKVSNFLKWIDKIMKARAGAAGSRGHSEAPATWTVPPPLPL
Procedure: For the calibration, a standard sample of low molecular weight heparin (Enoxaparin) was used as reference.
The serial dilutions of the assay compound are prepared in a 0.046 M Tris buffer, pH 8.4, containing 0.15 M NaCl, 0.007 M EDTA, 0.1% of Tween 80 and 0.12 IU/ml of human antithrombin III. The samples of 50 μl of the respective dilutions are incubated with 50 μl of bovine factor Xa (13.6 U/ml) at 37° C. for 80 seconds. Next, 50 μl of chromogenic substrate, 1.1 mM S-2765, are added. The absorbance at 405 nm is measured in a photometer. The activity of the deblocked factor Xa is indicated by the emission of p-nitroaniline from the substrate.

[4] = target: T2, bovine factor Xa; conditions: reference low-molecular weight heparin used for calibration; cited from earlier work
[5] = conc. of glycosaminoglycan 0.0001 μg/ml
[6] = conc. of glycosaminoglycan 0.001 μg/ml
[7] = conc. of glycosaminoglycan 0.01 μg/ml
[8] = conc. of glycosaminoglycan 0.1 μg/ml

Substance	IC50 [1]	Estimated IC50 [2]	% Conversion [2, 5]	% Conversion [2, 6]	% Conversion [2, 7]	% Conversion [2, 8]	% Conversion ([2]; conc. of glycosaminoglycan 1.0 μg/ml)	Anti-factor Xa activity [3]	Anti-factor Xa activity of the reference standard [4]
6-O-sulfated, Carboxyl-reduced Dermatan Sulfate Sodium Salt [Example 5]	10.0 µg/mL	0.26 µg/mL	100.0%	96.4%	84.3%	70.2%	36.1%	0 U/mg	–
Carboxyl-reduced Dermatan Sulfate Sodium Salt [Example 1]	–	~7.9 µg/mL	–	–	–	–	–	–	–
Enoxaparin	–	–	–	–	–	–	–	–	100 U/mg
Persulfated, Carboxyl-reduced Dermatan Sulfate Sodium Salt [Example 4]	0.11 µg/mL	0.007 µg/mL	100.0%	93.4%	27.4%	18.0%	–	1.1 U/mg	–
